In ChEMBL document CHEMBL5325501, “Discovery of BWA-522, a First-in-Class and Orally Bioavailable PROTAC Degrader of the Androgen Receptor Targeting N-Terminal Domain for the Treatment of Prostate Cancer” (J Med Chem, 2023):
Calls of active or inactive are those of the source. The rule behind the calls is not given here.

Experiments:
[1] = Metabolic stability in mouse liver microsomes assessed as half-life at 2 uM preincubated for 10 mins in the presence of NADPH followed by compound addition and measured after 60 mins by LC-MS/MS analysis; assay type: ADME, Microsome
[2] = Stability in human plasma assessed as parent compound remaining measured after 120 mins by LC-MS/MS analysis; assay type: ADME, cell-free; settings: read-out: Stability
[3] = Toxicity in ICR mouse assessed as spleen damage at 20 to 60 mg/kg, po administered daily for 14 days; assay type: organism-based; settings: in vivo, 336 h, dose 20-60 mg/kg, time 14 day
[4] = Metabolic stability in human liver microsomes assessed as half-life at 2 uM preincubated for 10 mins in the presence of NADPH followed by compound addition and measured after 60 mins by LC-MS/MS analysis; assay type: ADME, Microsome
[5] = Half-life in ICR mouse at 2 mg/kg, iv measured by LC-MS/MS analysis; assay type: ADME, organism-based; settings: in vivo
[6] = AUC(0 to t) in beagle dog at 5 mg/kg, po measured by LC-MS/MS analysis; assay type: ADME, organism-based, Canis lupus familiaris; set-up: dose 5 mg/kg, route po; settings: in vivo
[7] = Toxicity in ICR mouse assessed as lung damage at 20 to 60 mg/kg, po administered daily for 14 days; assay type: organism-based; settings: in vivo, 336 h, dose 20-60 mg/kg, time 14 day
DU-145 = test: Antiproliferative activity against AR-independent human DU-145 cells assessed as reduction in cell viability at 10 uM incubated for 6 days by CCK-8 assay; assay type: functional, cell-based; settings: time 6.0 day
[8] = Cmax in ICR mouse at 10 mg/kg, po measured by LC-MS/MS analysis; assay type: ADME, organism-based; set-up: dose 10 mg/kg, route po; settings: in vivo
[9] = Tmax in ICR mouse at 10 mg/kg, po measured by LC-MS/MS analysis; assay type: ADME, organism-based; settings: in vivo
[10] = Cmax in beagle dog at 5 mg/kg, po measured by LC-MS/MS analysis; assay type: ADME, organism-based, Canis lupus familiaris; set-up: dose 5 mg/kg, route po; settings: in vivo
[11] = Tmax in ICR mouse at 2 mg/kg, iv measured by LC-MS/MS analysis; assay type: ADME, organism-based; settings: in vivo
CWR22R = test: Antiproliferative activity against AR-dependent human 22Rv1 cells assessed as reduction in cell viability at 3 to 10 uM incubated for 6 days by CCK-8 assay; assay type: functional, cell-based; settings: dose 3-10 µM, time 6.0 day
[12] = Half-life in ICR mouse at 10 mg/kg, po measured by LC-MS/MS analysis; assay type: ADME, organism-based; settings: in vivo
PC-3 = test: Antiproliferative activity against AR-independent human PC-3 cells assessed as reduction in cell viability at 10 uM incubated for 6 days by CCK-8 assay; assay type: functional, cell-based; settings: time 6.0 day
VCaP [13] = test: Antiproliferative activity against human VCaP cells assessed as reduction in cell viability incubated for 6 days by CCK-8 assay; assay type: functional, cell-based; settings: 144 h
[14] = Toxicity in ICR mouse assessed as heart damage at 20 to 60 mg/kg, po administered daily for 14 days; assay type: organism-based; settings: in vivo, 336 h, dose 20-60 mg/kg, time 14 day
[15] = AUC(0 to t) in ICR mouse at 2 mg/kg, iv measured by LC-MS/MS analysis; assay type: ADME, organism-based; set-up: dose 2 mg/kg, route iv; settings: in vivo
[16] = Stability in mouse plasma assessed as parent compound remaining measured after 30 mins by LC-MS/MS analysis; assay type: ADME, cell-free; settings: read-out: Stability
LNCaP [17] = test: Inhibition of colony formation in human LNCaP cells incubated for 2 weeks by crystal violet staining based analysis; assay type: functional, cell-based; settings: dose 1-10 µM
LNCaP [18] = test: Induction of apoptosis in human LNCaP cells assessed as caspase-3 cleavage at 5 to 10 uM incubated for 48 hrs by Western blot analysis; assay type: functional, cell-based; settings: dose 5-10 µM
RWPE-1 = test: Cytotoxicity against human RWPE-1 cells assessed as reduction in cell viability incubated for 6 days by CCK8 assay; assay type: toxicity, cell-based; settings: rwpe-1, 144 h, time 6 day
[19] = Stability in mouse plasma assessed as parent compound remaining measured immediately by LC-MS/MS analysis; assay type: ADME, cell-free; settings: read-out: Stability
[20] = Downregulation of PSA protein level in human VCaP cells at 10 uM incubated for 48 hrs by Western blot analysis relative to control; assay type: functional
[21] = Downregulation of TMPRSS2 protein level in human LNCaP cells at 10 uM incubated for 48 hrs by Western blot analysis relative to control; assay type: functional
[22] = Tmax in beagle dog at 1 mg/kg, iv measured by LC-MS/MS analysis; assay type: ADME, organism-based, Canis lupus familiaris; settings: in vivo
[23] = Downregulation of PSA protein level in human LNCaP cells at 10 uM incubated for 48 hrs by Western blot analysis relative to control; assay type: functional
[24] = Stability in mouse plasma assessed as parent compound remaining measured after 120 mins by LC-MS/MS analysis; assay type: ADME, cell-free; settings: read-out: Stability
VCaP [25] = test: Downregulation of FKBP51 protein level in human VCaP cells incubated for 48 hrs by Western blot analysis; assay type: functional, cell-based; settings: dose 1-10 µM
VCaP [26] = test: Downregulation of PSA protein level in human VCaP cells incubated for 48 hrs by Western blot analysis; assay type: functional, cell-based; settings: dose 1-10 µM
LNCaP [27] = test: Induction of apoptosis in human LNCaP cells assessed as PARP-1 cleavage at 5 to 10 uM incubated for 48 hrs by Western blot analysis; assay type: functional, cell-based; settings: dose 5-10 µM
[28] = Clearance in beagle dog at 1 mg/kg, iv measured by LC-MS/MS analysis; assay type: ADME, organism-based, Canis lupus familiaris; settings: in vivo
LNCaP [29] = test: Antitumor activity against human LNCaP cells xenografted in NOD SCID mouse assessed as tumor growth inhibition at 20 mg/kg, po administered daily for 4 weeks relative to control; assay type: functional; settings: 672 h, read-out: TGI
[30] = Stability in mouse plasma assessed as parent compound remaining measured after 15 mins by LC-MS/MS analysis; assay type: ADME, cell-free; settings: read-out: Stability
[31] = Stability in mouse plasma assessed as parent compound remaining measured after 60 mins by LC-MS/MS analysis; assay type: ADME, cell-free; settings: read-out: Stability
[32] = Metabolic stability in human liver microsomes assessed as intrinsic clearance at 2 uM preincubated for 10 mins in the presence of NADPH followed by compound addition and measured per mg protein after 60 mins by LC-MS/MS analysis; assay type: ADME, Microsome; settings: read-out: CLH
[33] = Cmax in ICR mouse at 2 mg/kg, iv measured by LC-MS/MS analysis; assay type: ADME, organism-based; set-up: dose 2 mg/kg, route iv; settings: in vivo

## CC(C)(c1ccc(OCC2CCN(CC3CCN(c4ccc5c(c4)C(=O)N(C4CCC(=O)NC4=O)C5=O)CC3)CC2)cc1)c1ccc(OC[C@H](O)CCl)cc1 (some centres not stated)
[1]
  half-life at 2 µM: 3.12 h
[2]
  remaining at 2 h: 87.3%
[3]
  Activity: Non-Toxic
[4]
  half-life at 2 µM: 3.12 h
[5]
  half-life: 8.2 h
[6]
  AUCt: 1411 ng·h/mL
[7]
  Activity: Non-Toxic
DU-145
  Activity: inactive
[8]
  Cmax: 376 ng/mL
[9]
  Tmax: 4.7 h
[10]
  Cmax: 97.3 ng/mL
[11]
  Tmax: 6 min
CWR22R
  Activity: Active
[12]
  half-life: 7.9 h
PC-3
  Activity: inactive
VCaP [13]
  IC50: 5.59 µM
[14]
  Activity: Non-Toxic
[15]
  AUC(0-t): 3020 ng·h/mL
[16]
  remaining at 0.5 h: 90.3%
LNCaP [17]
  inhibition: Dose-Dependent Effect
LNCaP [18]
  Activity: Active
RWPE-1
  Activity: Non-Toxic
[19]
  remaining at 0 min: 100%
[20]
  Activity: >80%
[21]
  Activity: ~45%
[22]
  Tmax: 6 min
[23]
  Activity: ~15%
[24]
  remaining at 2 h: 91.2%
VCaP [25]
  Activity: Dose-Dependent Effect
VCaP [26]
  Activity: Dose-Dependent Effect
LNCaP [27]
  Activity: Active
[28]
  clearance: 15.5 mL/min/kg
LNCaP [29]
  inhibition in vivo at 20 mg/kg: 26%
[30]
  remaining at 0.25 h: 88%
[31]
  remaining at 1 h: 90.8%
[32]
  microsomal CLint at 2 µM: 7.4 µL/min/mg
[33]
  Cmax: 782 ng/mL
